Measured values taken from US9394338B2, “Glutathione analogs and uses thereof” (REGENTS OF THE UNIVERSITY OF MINNESOTA, priority 2011, dated 2016).

What was measured:
Type in all cases: in vivo
APP/PS1 mice [1] = assay: Amyloid-β1-42 ELISA of brain homogenate
Protocol: (§1) Efficacy Study Design. To determine the effect of intraperitoneal and oral Ψ-GSH treatment, the study was divided in four groups (10 mice/group). 1. APP/PS1 mice-vehicle control, 2. APP/PS1 mice-Ψ-GSH i.p. 500 mg/kg, 3. APP/PS1 mice-Ψ-GSH oral 500 mg/kg, 4. Non-transgenic wild type mice-vehicle control. All the animals in the above-said groups were treated with saline or Ψ-GSH three times a week for 12 weeks, starting at the age of three to four months. Eleven weeks after the start of the treatment, the animals were tested in the Morris water maze, and twelve weeks after the start of the treatment, the animals were sacrificed for histopathological analysis.
Amyloid-β1-42 ELISA. Total Aβ^1-42 in the brain was quantified by sandwich ELISA (Invitrogen, Carlsbad, Calif.) according to the manufacturer's instructions. Wild type and transgenic Alzheimer's mice brains were Dounce homogenized in phosphate buffered saline (PBS), pH 7.2, containing a mixture of protease inhibitors. Brain homogenates were centrifuged and supernatants were assayed for soluble Aβ^1-42 per manufacturers' protocols. […] The concentration of both PBS soluble and insoluble (guanidine soluble) Aβ^1-42 was calculated from a standard curve of human Aβ^1-42 and was normalized to the weight of the tissue employed.

APP/PS1 mice [2] = assay: Brain protein carbonyl determination
Protocol: as §1
Protein Carbonyl Determination. Brains were homogenized in cold buffer (50 mM phosphate, pH 7.0, containing 1 mM EDTA containing protease inhibitors) and centrifuged at 10,000×g for 15 min at 4° C. The supernantent was mixed with 0.5 ml of 10 mM 2,4-dinitrophenylhydrazine (DNPH)/2 M HCL (or 2 M HCl alone for blanks). Samples were placed in a sample holder and incubated in the dark at room temperature for one hour vortexing intermittently. […] The concentration of DNPH was determined at its maximum wavelength (360 nm) and the molar absorption coefficient of 22,000 M^−1 cm^−1 was used to quantify the levels of protein carbonyls. Total protein concentration was determined by BCA protein assay kit (Pierce, Rockford, Ill.). […]

APP/PS1 mice [3] = assay: Brain ROS assay (DCFH-DA)
Protocol: as §1
ROS Assay. ROS levels were quantified via the 2′-7′-dichlorofluorescein-diacetate (DCFH-DA) assay. […] The reaction was then stopped by placing it on ice and the formation of oxidized fluorescent 2′-7′-dichlorofluorescein (DCF) was measured with a fluorescence plate reader (BioTek SynergyHT, VT, USA) using excitation and emission wavelengths at 488 and 525 nm, respectively. The final results were corrected for protein concentration and then expressed as percentage of the corresponding values in saline treated wild-type mice. All steps were performed in the dark and DCF formation was also monitored immediately after DCFH-DA was added to the homogenate (t=0 min) in order to subtract background autofluorescence.

N[C@@H](CNC(=O)N[C@@H](CS)C(=O)NCC(=O)O)C(=O)O [Ψ-GSH, γ-Gla-Cys-Gly-OH]
insoluble Aβ1-42 in brain (APP/PS1 mice [1]; i.p.): 45.4±6.01 % of vehicle-treated APP/PS1 mice | insoluble Aβ1-42 concentration in brain (APP/PS1 mice [1]; oral): 90.80±6.72 % of vehicle treated APP/PS1 mice | Protein carbonyls in brain (WT saline = 100%) (APP/PS1 mice [2]; i.p.): 97.8±6.30% | levels of protein carbonylation (APP/PS1 mice [2]; oral): unaffected | total brain ROS levels, increase over WT mice (APP/PS1 mice [3]; i.p.): 6% | levels of ROS (APP/PS1 mice [3]; oral): unaffected
